We go through 2 compounds from ChEMBL document CHEMBL6178019, “Discovery of CYP1A1 Inhibitors for Host-Directed Therapy against Sepsis” (J Med Chem, 2025).

Series [1] addresses T1, CYP1A1 (Homo sapiens, UniProt P04798).
T1 sequence (P04798 whole entry): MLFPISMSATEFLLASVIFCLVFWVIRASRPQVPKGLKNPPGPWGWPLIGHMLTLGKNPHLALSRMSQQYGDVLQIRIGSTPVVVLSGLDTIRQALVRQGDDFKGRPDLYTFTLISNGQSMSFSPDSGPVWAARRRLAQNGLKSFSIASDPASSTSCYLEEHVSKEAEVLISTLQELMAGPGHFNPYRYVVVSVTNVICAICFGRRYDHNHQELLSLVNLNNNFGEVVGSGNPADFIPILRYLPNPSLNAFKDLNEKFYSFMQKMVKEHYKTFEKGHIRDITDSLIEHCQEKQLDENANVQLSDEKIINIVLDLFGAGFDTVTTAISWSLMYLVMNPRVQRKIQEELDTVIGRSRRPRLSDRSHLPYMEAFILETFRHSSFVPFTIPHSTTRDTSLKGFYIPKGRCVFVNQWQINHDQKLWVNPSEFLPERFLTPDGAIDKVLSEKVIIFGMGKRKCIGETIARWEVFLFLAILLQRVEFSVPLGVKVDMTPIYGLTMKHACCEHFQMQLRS
The series can be described thus: Inhibition of CYP1A1 in human Caco-2 cells assessed as relative activity by measuring fold change at 500 nM incubated for 12 hrs by EROD assay relative to control. The series is classed as cell-based. As to conditions: read-out: FC.

For series [2], the target named is T2, CYP1A1 (Mus musculus, UniProt P00184).
T2 sequence (P00184 whole entry): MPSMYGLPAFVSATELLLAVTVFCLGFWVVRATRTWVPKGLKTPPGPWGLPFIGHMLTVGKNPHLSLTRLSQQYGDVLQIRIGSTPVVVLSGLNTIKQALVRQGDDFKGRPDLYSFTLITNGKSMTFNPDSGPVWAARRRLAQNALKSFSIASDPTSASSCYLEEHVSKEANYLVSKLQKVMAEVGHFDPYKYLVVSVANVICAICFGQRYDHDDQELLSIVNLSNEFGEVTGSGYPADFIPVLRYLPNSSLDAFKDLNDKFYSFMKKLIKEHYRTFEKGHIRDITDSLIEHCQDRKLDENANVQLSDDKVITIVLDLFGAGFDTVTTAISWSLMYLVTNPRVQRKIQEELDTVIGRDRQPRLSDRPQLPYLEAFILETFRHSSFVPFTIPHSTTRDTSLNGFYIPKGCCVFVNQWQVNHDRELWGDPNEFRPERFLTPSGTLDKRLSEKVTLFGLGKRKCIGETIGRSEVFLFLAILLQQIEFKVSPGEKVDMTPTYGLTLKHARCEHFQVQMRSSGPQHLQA
The experiment in a line: Inhibition of CYP1A1 in mouse RAW264.7 cells assessed as relative activity by measuring fold change at 500 nM incubated for 12 hrs by EROD assay relative to control. The series is classed as cell-based. The settings on record: read-out: FC.

In series [3] the target is T2, CYP1A1. The experiment in a line: Inhibition of CYP1A1 in mouse RAW264.7 cells assessed as relative activity by measuring fold change at 5 uM incubated for 12 hrs by EROD assay relative to control. The series is classed as cell-based. The settings on record: read-out: FC.
Series [4] can be described thus: Toxicity in male C57BL/6 mouse assessed as effect on creatinine level in serum up to 100 mg/kg, ip measured after 12 hrs. Format: organism-based. The settings on record: in vivo.
Series [5] is described as follows: Toxicity in male C57BL/6 mouse assessed as effect on blood urea nitrogen level in serum up to 100 mg/kg, ip measured after 12 hrs. The series is classed as organism-based. As to conditions: in vivo.
Series [6] can be described thus: Toxicity in male C57BL/6 mouse assessed as change in body weight at 1 to 100 mg/kg, ip measured after 7 days. The settings on record: in vivo, 168 h, dose 1-100 mg/kg, time 7 day. The series is classed as organism-based.
Series [7] is described as follows: Toxicity in male C57BL/6 mouse assessed as change in fur condition at 1 to 100 mg/kg, ip measured after 7 days. Format: organism-based. As to conditions: in vivo, 168 h, dose 1-100 mg/kg, time 7 day.
Series [8] concerns Staphylococcus aureus. The series can be described thus: Antibacterial activity against methicillin-resistant Staphylococcus aureus infected in CYP1A1 knockout mouse model assessed as increase in survival rate at 25 mg/kg, ip pretreated for 12 hrs followed by bacterial infection and measured after 60 hrs by Kaplan Meier survival analysis. Format: functional, organism-based. As to conditions: time 72.0 hrs.

The subject of series [9] is Staphylococcus aureus. The experiment in a line: Antibacterial activity against methicillin-resistant Staphylococcus aureus infected in C57BL/6 mouse model assessed as reduction in liver damage at 25 mg/kg, ip administered for 12 hrs by H and E staining based analysis. The series is classed as functional, organism-based.
The subject of series [10] is Staphylococcus aureus. The experiment in a line: Antibacterial activity against methicillin-resistant Staphylococcus aureus infected in C57BL/6 mouse model assessed as reversal of aspartate aminotransferase level in serum at 25 mg/kg, ip administered for 12 hrs by absorbance based microplate reader. The series is classed as functional, organism-based.
The test system of series [11] is Staphylococcus aureus. The experiment in a line: Antibacterial activity against methicillin-resistant Staphylococcus aureus infected in C57BL/6 mouse model assessed as reversal of creatinine level in serum at 25 mg/kg, ip administered for 12 hrs by absorbance based microplate reader. Format: functional, organism-based.
Series [12] concerns Staphylococcus aureus. The experiment in a line: Antibacterial activity against methicillin-resistant Staphylococcus aureus infected in C57BL/6 mouse assessed as reversal of blood urea nitrogen level in serum at 25 mg/kg, ip administered for 12 hrs by absorbance based microplate reader. Format: functional, organism-based.
The test system of series [13] is Staphylococcus aureus. The experiment in a line: Antibacterial activity against methicillin-resistant Staphylococcus aureus assessed as inhibition of bacterial growth at 0.02 to 2.5 mg/ml. The series is classed as functional, organism-based. The settings on record: dose 0.02-2.5 mg/ml.
Series [14] relates to RAW264.7. The experiment in a line: Induction of phagocytosis in mouse RAW264.7 cells assessed as upregulation of SR-A1 mRNA expression by qRT-PCR analysis. The series is classed as functional, cell-based. (In general: Quantitative PCR measures a nucleic acid by following its amplification.)
In series [15] the test system is RAW264.7. The experiment in a line: Induction of phagocytosis in mouse RAW264.7 cells assessed as upregulation of CD68 mRNA expression by qRT-PCR analysis. Format: functional, cell-based.
Series [16] has as its system Staphylococcus aureus. The experiment in a line: Antibacterial activity against methicillin-resistant Staphylococcus aureus infected in C57BL/6 mouse model assessed as reduction in bacterial dissemination from PLF to blood at 25 mg/kg, ip preadministered for 12 hrs followed by bacterial infection and measured after 24 hrs. Format: functional, organism-based. The settings on record: time 36.0 hrs.

In series [17] the test system is Staphylococcus aureus. The series can be described thus: Antibacterial activity against methicillin-resistant Staphylococcus aureus infected in C57BL/6 mouse model assessed as reduction in bacterial dissemination from PLF to liver at 25 mg/kg, ip preadministered for 12 hrs followed by bacterial infection and measured after 24 hrs. Format: functional, organism-based. The settings on record: time 36.0 hrs.

Series [18] deals with RAW264.7. The experiment in a line: Induction of phagocytosis in mouse RAW264.7 cells at 5 uM incubated for 12 hrs by flow cytometric analysis. Format: functional, cell-based. In general terms: A flow cytometer gives signals particle by particle.
Series [19] has as its system THP-1. The experiment in a line: Induction of phagocytosis in human THP-1-derived macrophages infected with hexidine iodide labelled methicillin-R Staphylococcus aureus at 5 uM preincubated for 12 hrs followed by bacterial infection and measured after 1 hrs by fluorescence based confocal microscopic analysis. The settings on record: time 13.0 hrs. Format: functional, cell-based.

The test system of series [20] is RAW264.7. The series can be described thus: Induction of phagocytosis in zymosan A stimulated mouse RAW264.7 cells assessed as upregulation of CD204 protein level at 5.0 uM incubated for 12 hrs by flow cytometric analysis. The series is classed as functional, cell-based.
In series [21] the test system is RAW264.7. The experiment in a line: Induction of phagocytosis in zymosan A stimulated mouse RAW264.7 cells assessed as upregulation of CD68 mRNA expression at 5.0 uM incubated for 12 hrs by qRT-PCR analysis. Format: functional, cell-based.
For series [22], the system named is Staphylococcus aureus. The series can be described thus: Antibacterial activity against methicillin-resistant Staphylococcus aureus infected in macrophage-depleted mouse assessed as bacterial clearance in PLF at 25 mg/kg, ip pretreated with clodronate liposomes for 48 hrs followed by compound administration for 12 hrs and measured after 24 hrs of bacterial infection. Format: functional, organism-based. The settings on record: time 36.0 hrs.

Calls of active or inactive are those of the source. The calls are words filed in the database; no cut-off is given here.

`C#Cc1ccccc1/C=C/C(=O)c1ccc2c(c1)n(C)c(=O)n2C`: the fold induction at 12 h, 0.5 µM in series [1] worked out at 0.06; in series [2] it was 0.07. Besides, the fold induction at 12 h, 5 µM in [3] was found to be 0.03. For the same compound, the Activity entry in series [4], in [5], in [6] and in series [7] was “Non-toxic” throughout. Also, the outcome in series [8] and in series [22] was inactive. For the same compound, the result in series [9], in series [10], in series [11], in series [12], in series [13] and in series [14] was Active. Besides, the outcome in series [15], in series [16], in series [17], in series [18], in series [19] and in series [20] was Active. Further, the result in series [21] was Active.
As to `Cn1cc(/C=C/C(=O)c2ccc3c(c2)n(C)c(=O)n3C)c2ccccc21`, the figures for the fold induction at 12 h, 0.5 µM in series [1] and in series [2] were 0.25 and 0.72, respectively. Besides, in [3], the fold induction at 12 h, 5 µM amounted to 0.25. Further, the Activity result in series [4], in series [5], in [6] and in series [7] was “Non-toxic” in each case. Also, the result in series [8] and in [22] was inactive. In addition, the result in [9], in series [10], in series [11], in [12], in series [13] and in series [14] was Active. Besides, the outcome in series [15], in series [16], in [17], in [18], in series [19] and in series [20] was Active. Besides, the outcome in series [21] was Active.
